Measured values published in patent US10059741B2 (priority 2015, dated 2018).
Like-named read-outs stand apart in the source and are kept apart here. Bridge positions count the residues as written; N and C are the ends. Square brackets hold non-standard residues; d marks the D form. Peptide text beside a SMILES is read from it. R8 = C=CCCCCCC[C@@](C)(N)C(=O)O; S5 = C=CCCC[C@](C)(N)C(=O)O; Nle = CCCC[C@H](N)C(=O)O; Aib = CC(C)(N)C(=O)O

What was measured:
[1] = system: influenza virus, various viral strains; assay: organism not typed; format: cell-based; details: read-out: EC50
[2] = system: H5N1 A/Hong Kong/213/2003; assay: microbe, parasite or virus in culture; format: cell-based, influenza A virus; details: read-out: EC50
[3] = system: H3N2 Perth/16/2009; assay: microbe, parasite or virus in culture; format: cell-based, influenza A virus
[4] = system: H1N1 California/07/2009; assay: microbe, parasite or virus in culture; format: cell-based, influenza A virus
[5] = system: H1N1 A/Solomon Island/03/2006; format: cell-based, influenza A virus; details: read-out: EC50
[6] = system: H1N1 California/07/2009; assay: microbe, parasite or virus in culture; format: cell-based, influenza A virus; remark: listed apart in the source
[7] = system: H3N2 Perth/16/2009; assay: microbe, parasite or virus in culture; format: cell-based, influenza A virus; remark: listed apart in the source
[8] = in vitro; details: dog
[9] = system: H7N9 A/Anhui/1/2013; assay: microbe, parasite or virus in culture; format: cell-based, influenza A virus; details: read-out: EC50
[10] = Cytopathic effect/toxicity (Neutral red), MDCK cells, read-out: EC50 (μM) H3N2 Perth/16/2009
[11] = Influenza A H3N2 Perth/16/2006 (so in the source), Drug Assay Neutral Red, read-out: EC50
[12] = Cytopathic effect/toxicity (Neutral red), MDCK cells, read-out: EC50 (μM) H1N1 California/07/2009
[13] = Influenza A H1N1 California/07/2009, Drug Assay Neutral Red, read-out: EC50
[14] = Cytopathic effect/toxicity (Visual), MDCK cells, read-out: EC50 (μM) H1N1 California/07/2009
[15] = Influenza A H1N1 California/07/2009, Drug Assay Visual, read-out: EC50
[16] = Cytopathic effect/toxicity (Visual), MDCK cells, read-out: EC50 (μM) H3N2 Perth/16/2009
[17] = Influenza A H3N2 Perth/16/2006 (so in the source), Drug Assay Visual, read-out: EC50
[18] = CC50 (μM) H1N1 California/07/2009, Cell cytotoxicity (CC), run with H1N1 California/07/2009
[19] = CC50 (μM) H3N2 Perth/16/2009, Cell cytotoxicity (CC), run with H3N2 Perth/16/2009
[20] = CC50, run with Influenza A H1N1 A/Solomon Is./3/2006-M, Neutral Red
[21] = CC50, run with Influenza A H1N1 A/Solomon Is./3/2006-M, Visual
[22] = CC50, run with Influenza A H1N1 California/07/20/09 (so in the source), later run, Neutral Red
[23] = CC50, run with Influenza A H1N1 California/07/20/09 (so in the source), Visual/Neutral Red
[24] = CC50, run with Influenza A H1N1 California/07/2009, Neutral Red
[25] = CC50, run with Influenza A H1N1 California/07/2009, Visual
[26] = CC50, run with Influenza A H3N2 Perth/16/2006 (so in the source), Neutral Red
[27] = CC50, run with Influenza A H3N2 Perth/16/2006 (so in the source), Visual
[28] = CC50, run with Influenza A H3N2 Perth/16/2009, last run, Neutral Red
[29] = CC50, run with Influenza A H3N2 Perth/16/2009, Visual/Neutral Red
[30] = read-out: EC50 (μM) H3N2 Perth/16/2009
[31] = read-out: EC50 (μM) H1N1 California/07/2009

CCCC[C@H](NC(C)=O)C(=O)N[C@@H](CC(=O)O)C(=O)N[C@H](C(=O)N[C@@H](CC(N)=O)C(=O)N[C@]1(C)CCCCCCC=CCCC[C@@](C)(C(=O)N[C@@H](CCC(N)=O)C(=O)N[C@@H](C)C(=O)N[C@@H](C)C(=O)N[C@@H](C)C(=O)N[C@@H](C)C(N)=O)NC(=O)[C@H](C)NC(=O)[C@H](CC(C)C)NC(=O)[C@H](Cc2ccccc2)NC(=O)[C@H](CC(C)C)NC(=O)[C@H](CC(C)C)NC(=O)[C@H]([C@@H](C)O)NC1=O)C(C)C [SP-27] (Ac-[Nle]DVN[R8]TLLFLA[S5]QAAAA-NH2; staple 5-12)
EC50 ([1]; Influenza A H1N1 A/Solomon Is./3/2006-M, Drug Assay Visual): 32 µM
EC50 [2]: > 50 µM
EC50 [3, 10]: 1.5 to 10 µM
EC50 [3, 11]: 1.7 µM
EC50 ([3]; Influenza A H3N2 Perth/16/2009, last run, Drug Assay Neutral Red, read-out: EC50): 35 µM
EC90 ([3]; Influenza A H3N2 Perth/16/2009, Drug Assay Visual/Neutral Red): 35 µM
EC50 [4, 12]: < 1.5 µM
EC50 ([4]; Influenza A H1N1 California/07/20/09 (so in the source), later run, Drug Assay Neutral Red, read-out: EC50): 8.7 µM
EC90 ([4]; Influenza A H1N1 California/07/20/09 (so in the source), Drug Assay Visual/Neutral Red): 8 µM
EC50 [4, 13]: 0.44 µM
EC50 ([5]; Influenza A H1N1 A/Solomon Is./3/2006-M, Drug Assay Neutral Red): 75 µM
EC50 [6, 14]: < 1.5 µM
EC50 [6, 15]: 0.57 µM
EC50 [7, 16]: < 1.5 µM
EC50 [7, 17]: 0.32 µM
CC50 ([8]; CC50): > 50 µM
CC50 [8, 18]: > 100 µM
CC50 [8, 19]: > 100 µM
CC50 [8, 20]: > 100 µM
CC50 [8, 21]: > 100 µM
CC50 [8, 22]: > 100 µM
CC50 [8, 23]: > 100 µM
CC50 [8, 24]: > 100 µM
CC50 [8, 25]: > 100 µM
CC50 [8, 26]: > 100 µM
CC50 [8, 27]: > 100 µM
CC50 [8, 28]: > 100 µM
CC50 [8, 29]: > 100 µM
EC50 [9]: 9.6 µM

CCCC[C@H](NC(C)=O)C(=O)N[C@@H](CC(=O)O)C(=O)N[C@H](C(=O)N[C@@H](CC(N)=O)C(=O)N[C@@]1(C)CCCC=CCCC[C@@](C)(C(=O)N[C@@H](CC(C)C)C(=O)N[C@@H](C)C(=O)N[C@H](C(=O)N[C@@H](CCC(N)=O)C(=O)N[C@@H](C)C(=O)N[C@@H](C)C(=O)NC(C)(C)C(=O)N[C@@H](C)C(N)=O)C(C)C)NC(=O)[C@H](CC(C)C)NC(=O)[C@H](CC(C)C)NC(=O)[C@H]([C@@H](C)O)NC1=O)C(C)C [SP-22] (Ac-[Nle]DVN[S5]TLL[S5]LAVQAA[Aib]A-NH2; staple 5-9)
EC50 [1]: 12 µM
EC50 [2]: > 50 µM
EC90 [3]: 59 µM
EC50 [3, 30]: < 1.5 µM
EC90 [4]: 6.5 µM
EC50 [4, 31]: 1.5 to 10 µM
EC50 [5]: 29 µM
EC50 ([6]; read-out: EC50): 1.8 µM
EC50 [6, 31]: 1.5 to 10 µM
EC50 ([7]; read-out: EC50): 0.54 µM
EC50 [7, 30]: < 1.5 µM
CC50 ([8]; CC50): > 50 µM
CC50 [8, 18]: > 100 µM
CC50 [8, 19]: > 100 µM
CC50 [8, 20]: > 100 µM
CC50 [8, 21]: > 100 µM
CC50 [8, 22]: > 100 µM
CC50 [8, 23]: > 100 µM
CC50 [8, 24]: > 100 µM
CC50 [8, 25]: > 100 µM
CC50 [8, 26]: > 100 µM
CC50 [8, 27]: > 100 µM
CC50 [8, 28]: > 100 µM
CC50 [8, 29]: > 100 µM
EC50 [9]: 13 µM

CCCC[C@H](NC(C)=O)C(=O)N[C@@H](CC(=O)O)C(=O)N[C@H](C(=O)N[C@@H](CC(N)=O)C(=O)N[C@]1(C)CCCCCCC=CCCC[C@@](C)(C(=O)N[C@@H](CCC(N)=O)C(=O)N[C@@H](C)C(=O)N[C@@H](CCC(N)=O)C(=O)N[C@@H](C)C(=O)N[C@@H](C)C(N)=O)NC(=O)[C@H](C)NC(=O)[C@H](CC(C)C)NC(=O)[C@H](Cc2ccccc2)NC(=O)[C@H](CC(C)C)NC(=O)[C@H](CC(C)C)NC(=O)[C@H]([C@@H](C)O)NC1=O)C(C)C [SP-26] (Ac-[Nle]DVN[R8]TLLFLA[S5]QAQAA-NH2; staple 5-12)
EC50 [3, 10]: 10 to 25 µM
EC50 [3, 11]: 23 µM
EC50 [4, 12]: 1.5 to 10 µM
EC50 [4, 13]: 2.1 µM
EC50 [6, 14]: < 1.5 µM
EC50 [6, 15]: 0.75 µM
EC50 [7, 16]: 10 to 25 µM
EC50 [7, 17]: 14 µM
CC50 [8, 18]: > 100 µM
CC50 [8, 19]: > 100 µM
CC50 [8, 24]: > 100 µM
CC50 [8, 25]: > 100 µM
CC50 [8, 26]: > 100 µM
CC50 [8, 27]: > 100 µM

CCCC[C@H](NC(C)=O)C(=O)N[C@@H](CC(=O)O)C(=O)N[C@H](C(=O)N[C@@H](CC(N)=O)C(=O)N[C@@]1(C)CCCC=CCCC[C@@](C)(C(=O)N[C@@H](CC(C)C)C(=O)N[C@@H](C)C(=O)N[C@H](C(=O)N[C@@H](CCC(N)=O)C(=O)N[C@@H](C)C(=O)NC(C)(C)C(=O)N[C@@H](C)C(=O)N[C@@H](C)C(N)=O)C(C)C)NC(=O)[C@H](CC(C)C)NC(=O)[C@H](CC(C)C)NC(=O)[C@H]([C@@H](C)O)NC1=O)C(C)C [SP-23] (Ac-[Nle]DVN[S5]TLL[S5]LAVQA[Aib]AA-NH2; staple 5-9)
EC50 [3, 30]: 1.5 to 10 µM
EC50 ([4]; read-out: EC50): 4.2 µM
EC50 [4, 31]: 1.5 to 10 µM
EC50 ([6]; read-out: EC50): 4.3 µM
EC50 [6, 31]: 1.5 to 10 µM
EC50 [7, 30]: 1.5 to 10 µM
CC50 [8, 18]: > 100 µM
CC50 [8, 19]: > 100 µM
CC50 [8, 24]: > 100 µM
CC50 [8, 25]: > 100 µM
CC50 [8, 26]: > 100 µM
CC50 [8, 27]: > 100 µM

CCCC[C@H](NC(C)=O)C(=O)N[C@@H](CC(=O)O)C(=O)N[C@H](C(=O)N[C@@H](CC(N)=O)C(=O)N[C@]1(C)CCCCCCC=CCCC[C@@](C)(C(=O)N[C@@H](C)C(=O)N[C@@H](C)C(=O)N[C@@H](CCC(N)=O)C(=O)N[C@@H](C)C(=O)N[C@@H](C)C(N)=O)NC(=O)[C@H](C)NC(=O)[C@H](CC(C)C)NC(=O)[C@H](Cc2ccccc2)NC(=O)[C@H](CC(C)C)NC(=O)[C@H](CC(C)C)NC(=O)[C@H]([C@@H](C)O)NC1=O)C(C)C [SP-24] (Ac-[Nle]DVN[R8]TLLFLA[S5]AAQAA-NH2; staple 5-12)
EC50 [3, 10]: 1.5 to 10 µM
EC50 [3, 11]: 3.4 µM
EC50 [4, 12]: 1.5 to 10 µM
EC50 [4, 13]: 6.9 µM
EC50 [6, 14]: 1.5 to 10 µM
EC50 [6, 15]: 4.3 µM
EC50 [7, 16]: 1.5 to 10 µM
EC50 [7, 17]: 2.5 µM
CC50 [8, 18]: > 100 µM
CC50 [8, 19]: > 100 µM
CC50 [8, 24]: > 100 µM
CC50 [8, 25]: > 100 µM
CC50 [8, 26]: > 100 µM
CC50 [8, 27]: > 100 µM

CCCC[C@H](NC(C)=O)C(=O)N[C@@H](CC(=O)O)C(=O)N[C@H](C(=O)N[C@@H](CC(N)=O)C(=O)N[C@@]1(C)CCCC=CCCC[C@@](C)(C(=O)N[C@@H](CC(C)C)C(=O)N[C@@H](C)C(=O)N[C@H](C(=O)N[C@@H](CCC(N)=O)C(=O)N[C@@H](C)C(=O)N[C@@H](CCC(N)=O)C(=O)NC(C)(C)C(=O)N[C@@H](C)C(N)=O)C(C)C)NC(=O)[C@H](CC(C)C)NC(=O)[C@H](CC(C)C)NC(=O)[C@H]([C@@H](C)O)NC1=O)C(C)C [SP-20] (Ac-[Nle]DVN[S5]TLL[S5]LAVQAQ[Aib]A-NH2; staple 5-9)
EC50 [3, 30]: 1.5 to 10 µM
EC50 [4, 31]: 25 to 50 µM
EC50 [6, 31]: 10 to 25 µM
EC50 [7, 30]: 1.5 to 10 µM
CC50 [8, 18]: > 100 µM
CC50 [8, 19]: > 100 µM
CC50 [8, 24]: > 100 µM
CC50 [8, 25]: > 100 µM
CC50 [8, 26]: > 100 µM
CC50 [8, 27]: > 100 µM
